Laboratory results: patent US20100062073A1, “PHARMACEUTICAL COMPOSITIONS COMPRISING NANOPARTICLES COMPRISING ENTERIC POLYMERS CASEIN” (priority 2006, published 2010)

Assay: Solubility of drug in PBS
Assay type: physicochemical
Conditions: phosphate buffered saline (PBS), pH 6.5, aqueous buffer
Description: At a pH of greater than about 5, the enteric polymer is aqueous soluble. By “aqueous soluble” is meant that when the polymer is administered alone at a solids concentration of 0.2 mg/mL to a phosphate buffered saline (PBS) solution consisting of an aqueous solution of 20 mM sodium phosphate (Na2HPO4), 47 mM potassium phosphate (KH2PO4), 87 mM NaCl, and 0.2 mM KCl, adjusted to pH 6.5 with NaOH, the polymer has a solubility of greater than 0.1 mg/mL.
The Tm of Drug 1 is 10° C., and the Tg was determined by DSC analysis to be −16° C.

solubility: < 0.1 µg/mL
SMILES: CCc1cc(Oc2cccc(N(Cc3cccc(OC(F)(F)C(F)F)c3)C[C@@H](O)C(F)(F)F)c2)ccc1Cl [Drug 1, (2R)-3-[[3-(4-chloro-3-ethylphenoxy)phenyl][[3-(1,1,2,2-tetrafluoroethoxy)phenyl]methyl]amino]-1,1,1-trifluoro-2-propanol]
